Test results from patent publication US9771378B2 (Denali Therapeutics, Inc., priority 2014, dated 2017).

System: Aβ42 (human neuroglioma H4 cells expressing human wild type APP751)
Assay: In vitro cell screening assay with sandwich ELISA quantification of Aβ42 peptide
Assay type: cell-based
Conditions: H4 cells stably expressing human wild type APP751; Pro293 chemically defined medium; compounds 0.003-10 μM; incubated overnight (16-18 h); supernatant Aβ42 by sandwich ELISA; normalized to DMSO and DAPT; read-out: Aβ42 H4 Prot Fre IC50
Procedure, shortened: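 Aβ42 in supernatants was quantified by sandwich ELISA with C-terminal-specific capture and 4G8-HRP detection, absorbance at 450 nm. Stable APP751-expressing human H4 cells received compound at 0.003-10 μM (0.33% DMSO) overnight (16-18 h). IC50 was derived from percent-of-DMSO-control data by nonlinear variable-slope fit.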

SMILES | IC50
COc1cc(Nc2ncc3c(n2)N2C(=O)CCC2CO3)cnc1-n1cnc(C)c1 (single isomer, unassigned; (-)) [Example 302B, (−)-2-((5-methoxy-6-(4-methyl-1H-imidazol-1-yl)pyridin-3-yl)amino)-6,6a, 7,8-tetrahydro-9H-pyrimido [5,4-b] pyrrolo [1,2-d] [1, 4] oxazin-9-one] | 2900 nM
COc1cc(Nc2ncc3c(n2)N(C)C(C2CCOCC2)CO3)ccc1-n1cnc(C)c1 (single isomer, unassigned; (+)) [Example 114B] | 77 nM
Cc1cn(-c2ccc(Nc3ncc4c(n3)N(C)C(C)CO4)cc2F)cn1 (single isomer, unassigned; (+)) [Example 108B] | 108 nM
Cc1cn(-c2ccc(Nc3ncc4c(n3)N(C)C(c3ccc(F)cc3)CO4)cc2F)cn1 (single isomer, unassigned; (+)) [Example 58A] | 28 nM
Cc1cn(-c2ccc(Nc3ncc4c(n3)N(C)C(c3ccc(F)cc3Cl)CO4)cc2F)cn1 (single isomer, unassigned; (-)) [Example 101B] | 685 nM
Cc1cn(-c2ccc(Nc3ncc4c(n3)N(C)C(c3ccccc3)CO4)cc2F)cn1 (single isomer, unassigned; (-)) [Example 25B] | 334 nM
COc1cc(Nc2ncc3c(n2)N(C)C(c2cc(Cl)ccc2C(F)(F)F)CO3)ccc1-n1cnc(C)c1 (single isomer, unassigned; (-)) [Example 165B] | 79 nM
COc1cc(Nc2ncc3c(n2)N(C)C(Cc2ccccc2)CO3)ccc1-c1ccnc(C)c1 (single isomer, unassigned; (-)) [Example 68B] | 229 nM
Cc1cc(-c2ccc(Nc3ncc4c(n3)N(C)C(c3ccccc3C)CO4)cc2F)ccn1 (racemic) [Example 32] | 168 nM
Cc1cn(-c2ccc(Nc3ncc4c(n3)N(C)C(c3ccc(Cl)cc3Cl)CO4)cc2F)cn1 (single isomer, unassigned; (+)) [Example 96A] | 76 nM
Cc1cc(-c2ccc(Nc3ncc4c(n3)N(C)C(c3ccc(F)cc3Cl)CO4)cc2F)ccn1 (single isomer, unassigned; (+)) [Example 102A] | 415 nM
Cc1cn(-c2ccc(Nc3ncc4c(n3)N3CCC[C@]3(C)CO4)cc2F)cn1 [Example 293, (R)-N-(3-fluoro-4-(4-methyl-1H-imidazol-1-yl)phenyl)-6a-methyl-6a, 7,8,9-tetrahydro-6H-pyrimido [5,4-b] pyrrolo [1,2-d] [1, 4] oxazin-2-amine] | 276 nM
Cc1cn(-c2ccc(Nc3ncc4c(n3)N(C)C(Cc3ccccc3)CO4)cc2F)cn1 (single isomer, unassigned; (-)) [Example 59B] | 452 nM
COc1cc(Nc2ncc3c(n2)N(C)C(C(F)(F)F)CO3)ccc1-n1cnc(Cl)c1 (single isomer, unassigned; (-)) [Example 228B] | 14 nM
Cc1cn(-c2ccc(Nc3ncc4c(n3)N(C)C(C3CCOCC3)CO4)cc2F)cn1 (single isomer, unassigned; (+)) [Example 109A] | 212 nM
COc1cc(Nc2ncc3c(n2)N(C)C(c2ccc(F)cc2F)CO3)ccc1-c1ccnc(C)c1 (single isomer, unassigned; (-)) [Example 63A] | 543 nM
Cc1cn(-c2ccc(Nc3ncc4c(n3)N(C)C3(CCCC3)CO4)nc2)cn1 [Example 263] | > 3000 nM
Cc1cn(-c2ccc(Nc3ncc4c(n3)N(C)C(c3cc(F)cc(F)c3)CO4)cc2C#N)cn1 (single isomer, unassigned; (-)) [Example 203B, (−)-5-((7-(3,5-difluorophenyl)-8-methyl-7,8-dihydro-6H-pyrimido [5,4-b] [1, 4]oxazin-2-yl)amino)-2-(4-methyl-1H-imidazol-1-yl) benzonitrile] | 210 nM
COc1cc(Nc2ncc3c(n2)N(C)C(c2cc(F)cc(F)c2)CO3)ccc1-n1cnc(C)n1 (single isomer, unassigned; (+)) [Example 244A] | 23 nM
Cc1cn(-c2ccc(Nc3ncc4c(n3)N(C)C(C)CO4)cc2C(F)F)cn1 (single isomer, unassigned; (-)) [Example 214B] | 2260 nM
COc1cc(Nc2ncc3c(n2)N2CCOC[C@H]2CO3)ccc1-n1cnc(C)c1 [Example 295] | 496 nM
Cc1cn(-c2ccc(Nc3ncc4c(n3)N(C)C(C)CO4)cn2)cn1 (single isomer, unassigned; (-)) [Example 194B] | > 3000 nM
COc1cc(Nc2ncc3c(n2)N(C)C(c2cc(F)cc(F)c2)CO3)cnc1-n1cnc(C#N)c1 (single isomer, unassigned; (-)) [Example 211B, (−)-1-(5-((7-(3,5-difluorophenyl)-8-methyl-7,8-dihydro-6H-pyrimido [5,4-b] [1, 4]oxazin-2-yl)amino)-3-methoxypyridin-2-yl)-1H-imidazole-4-carbonitrile] | > 3000 nM
Cc1cn(-c2ccc(Nc3ncc4c(n3)N(C)C(c3ccccc3OC(F)(F)F)CO4)cc2F)cn1 (single isomer, unassigned; (-)) [Example 64B] | 741 nM
COc1cc(Nc2ncc3c(n2)N(C)C(c2cc(F)c(F)cc2F)CO3)ccc1-n1cnc(C)c1 (single isomer, unassigned; (+)) [Example 97B] | 13 nM
COc1cc(Nc2ncc3c(n2)N(C)C(C)(C)CO3)cnc1-c1cnn(C)c1 [Example 270] | > 3000 nM

SMILES | IC50
COc1cc(Nc2ncc3c(n2)N(C)C2(COC2)CO3)cnc1-n1cnc(C)c1 [Example 272] | 537 nM
CN1c2nc(Nc3ccc(C#N)cc3)ncc2OCC1C(F)(F)F (single isomer, unassigned; (-)) [Example 226B, (−)-4-((8-methyl-7-(trifluoromethyl)-7,8-dihydro-6H-pyrimido [5,4-b] [1, 4]oxazin-2-yl)amino) benzonitrile] | > 3000 nM
COc1cc(Nc2ncc3c(n2)N(C)C(C(F)(F)F)CO3)ncc1-n1cnc(C)c1 (single isomer, unassigned; (-)) [Example 236B] | 245 nM
COc1cc(Nc2ncc3c(n2)N(C)C(c2cc(F)cc(F)c2)CO3)cnc1-n1cnc(C)c1 (single isomer, unassigned; (-)) [Example 189B] | 655 nM
COc1cc(Nc2ncc3c(n2)N(C)C(C2(C(F)(F)F)CC2)CO3)cnc1-n1cnc(C)c1 (single isomer, unassigned; (+)) [Example 247B] | 5 nM
Cc1cn(-c2ccc(Nc3ncc4c(n3)N(C)C(c3cc(F)cc(F)c3)CO4)cc2F)cn1 (single isomer, unassigned; (+)) [Example 33A] | 14 nM
COc1cc(Nc2ncc3c(n2)N(C)C(c2ccccc2C(F)(F)F)CO3)ccc1-n1cnc(C)c1 (single isomer, unassigned; (-)) [Example 55A] | 102 nM
Cc1cn(-c2ccc(Nc3ncc4c(n3)N(C)C(C)CO4)cc2OC(F)(F)F)cn1 (single isomer, unassigned; (-)) [Example 213A] | > 3000 nM
COc1cc(Nc2ncc3c(n2)N(C)C(c2ccc(F)cc2C(F)(F)F)CO3)ccc1-n1cnc(C)c1 (single isomer, unassigned; (-)) [Example 94A] | 78 nM
Cc1cc(-c2ccc(Nc3ncc4c(n3)N(C)C(c3cc(F)c(F)c(F)c3)CO4)cc2F)ccn1 (single isomer, unassigned; (-)) [Example 36B] | 1250 nM
COc1cc(Nc2ncc3c(n2)N(C)C(c2ccc(F)cc2)CO3)ccc1-n1cnc(C)c1 (racemic) [Example 49] | 36 nM
COc1cc(Nc2ncc3c(n2)N(C)C(Cc2ccccc2)CO3)ccc1-n1cnc(C)c1 (single isomer, unassigned; (+)) [Example 47A] | 23 nM
COc1cc(Nc2ncc3c(n2)N(C)[C@H](c2ccccc2)CO3)ccc1-c1ccnc(C)c1 [Example 22B, (R)—N-(3-methoxy-4-(2-methylpyridin-4-yl)phenyl)-8-methyl-7-phenyl-7,8-dihydro-6H-pyrimido[5,4-b][1,4]oxazin-2-amine] | 168 nM
Cc1cc(-c2ccc(Nc3ncc4c(n3)N(C)C(c3ccccc3)CO4)cc2F)ccn1 (single isomer, unassigned; (+)) [Example 27A] | 306 nM
Cc1cn(-c2ccc(Nc3ncc4c(n3)N(C)C(c3ccccc3)CO4)cc2F)cn1 (racemic) [Example 25] | 101 nM
Cc1cc(-c2ccc(Nc3ncc4c(n3)N(C)C(c3ccc(F)cc3F)CO4)cc2F)ccn1 (single isomer, unassigned; (+)) [Example 66A] | 488 nM
COc1nc(Nc2ncc3c(n2)N(C)C(C)CO3)ccc1-n1cnc(C)c1 (racemic) [Example 190] | > 3000 nM
COc1cc(Nc2ncc3c(n2)N(C)C(C)CO3)ccc1-c1ccnc(C)c1 (single isomer, unassigned; (-)) [Example 110A] | 199 nM
COc1cc(Nc2ncc3c(n2)N(C)C(C2COC2)CO3)cnc1-n1cnc(C)c1 (single isomer, unassigned; (-)) [Example 243B] | 814 nM
COc1cc(Nc2ncc3c(n2)N(C)C2(CCOCC2)CO3)ccc1-n1cnc(C)c1 [Example 273] | 111 nM
Cc1cn(-c2ccc(Nc3ncc4c(n3)N(C)C(c3ccccc3Cl)CO4)cc2F)cn1 (single isomer, unassigned; (+)) [Example 67A] | 124 nM
COc1cc(Nc2ncc3c(n2)N(C)C(C)CO3)ccc1-c1ccnc(C)c1 (single isomer, unassigned; (+)) [Example 110B] | 91 nM
Cc1cn(-c2ccc(Nc3ncc4c(n3)N(C)C(c3ccc(F)cc3F)CO4)cc2F)cn1 (single isomer, unassigned; (+)) [Example 69A] | 69 nM
COc1nc(Nc2ncc3c(n2)N(C)C(c2cc(F)c(F)c(F)c2)CO3)c(F)cc1-c1cnn(C)c1 (racemic) [Example 196] | 544 nM
Cc1cn(-c2ccc(Nc3ncc4c(n3)N(C)C(c3ccc(Cl)cc3C(F)(F)F)CO4)cc2F)cn1 (single isomer, unassigned; (+)) [Example 106A] | 154 nM
